Our source for the melting point values is a melting point compilation (Tetko et al.; mined from patent text by program, amines drawn as free bases though some values may be those of a salt).

By melting point is commonly meant the temperature of the solid-liquid transition.

`CC#Cc1cc(N(C)C)nc(Nc2ccccc2)n1` registered a melting point of 150 to 152 °C. The value for `Cc1nc(N2CCOCC2)sc1C` was 122 to 123 °C. The value for `COc1cccc(Cl)c1CC(=O)O` was 164 to 165 °C; that for `COc1ccc(S(=O)(=O)C(C)(CC2CCCCC2)C(=O)NO)cc1` (configuration not stated) was 58 °C; that for `CCOc1ccc(-c2noc3c(Cl)c(O)ccc23)c(F)c1` was 170 to 172 °C. The value for `CCc1nnc2n1-c1ccc(Cl)cc1C(c1ccccc1)=NC2` was 229 to 230 °C; that for `C#CC#Cc1ccc(C(=O)O)cc1` was over 230 °C; that for `CC(C)(C)NS(=O)(=O)c1cccc2c1CSC2=O` was 121 to 124 °C. `Nc1[nH]nc(-c2ccc(Cl)cc2)c1-c1ccncc1` displayed a melting point of over 300 °C. For the compound `CCOC(=S)Nc1ccccc1NC(=S)NC(=O)OC`, the melting point came out at 172 °C. The value for `CSc1ccc2sc(C(N)=O)c(N(C)C)c2c1` was 140 to 142 °C; that for `C=CCNC(=O)Nc1nc2nc(NCCCN3CCN(C)CC3)ncc2cc1-c1c(Cl)cccc1Cl` was 104 to 108 °C.

`O=C1N=CNC(=O)C1Cc1ccccc1C(F)(F)F` (configuration not stated): the melting point was over 290 °C. The value for `Nc1nc(N)nc(-c2ccc(NS(=O)(=O)c3cc(Cl)ccc3Cl)cc2)n1` was 230 to 233 °C; that for `O=C1N=NC(c2nc(Cl)c(Cl)[nH]2)=N1` was 176 to 178 °C. For the compound `O=C1c2ccccc2C(=O)N1OC1C=CCCC1` (configuration not stated), the melting point came to 87 °C. The value for `CC(C)OC(=O)c1nn(-c2ccc(Cl)cc2)c(=O)c2c(N)scc12` was 118 to 120 °C; that for `c1ccc(C2=c3cc4c(cc3Oc3ccccc32)=C(c2ccccc2)c2ccccc2O4)cc1` was 419 °C; that for `CCSc1nc(-c2ccc(OC)cc2)c(-c2ccc(OC)cc2)[nH]1` was 108 to 109 °C. The value for `Cc1c(C(=O)Nc2ccc(N3CCC(N4CCOCC4)CC3)c(C#N)c2)cnn1-c1ccc(Cl)cc1` was 249 to 250 °C; that for `Cc1c(F)cccc1NC(=O)c1ccc(CN2C(=O)C3(COc4cc5c(cc43)CCO5)c3ccccc32)cc1` (configuration not stated) was 143 to 144 °C; that for `CC(=O)Nc1ccc(Cl)cc1C(=O)c1c(F)cccc1F` was 106 to 116 °C. The value for `Cc1ccc(S(=O)(=O)OCC2Cc3c(Cl)cc4c(c3O2)CCC4)cc1` (configuration not stated) was 95 to 97 °C; that for `CC12CC(Cl)C(O)CC1CCC1C2CCC2(C)C(O)C(N3CCCCC3)CC12` (configuration not stated) was 232 to 234 °C. On to `CCc1cc2[nH]ccc(=O)c2c(CC)n1`, for which the melting point lay in the range of 207 to 208 °C. The value for `CCOC(=O)COc1ccc(Br)cc1C(C)=O` was 66 to 68 °C.

For `FC(F)(F)c1onc(-c2ccc(Cl)o2)c1-c1ccccc1`, the melting point fell in the range of 55 to 57 °C. The value for `O=C(O)C1=Cc2cccc(-c3ccccc3)c2OC1C(F)(F)F` (configuration not stated) was 172 to 175 °C. The value for `CS(=O)(=O)Nc1ccc2ncn3c(=O)c(C(=O)O)cnc3c2c1` was 319 to 322 °C. The value for `Clc1nc(Cl)c2cc(N3CCCCC3)ccc2n1` was 101 to 102 °C. On to `O=C(c1sc2c([N+](=O)[O-])c(O)c(O)cc2c1Cl)N1CCCCC1`, for which the melting point lay in the range of 254 to 256 °C.

In turn, `O=C(O)c1cc2ccc(OCCNC[C@H](O)COc3ccccc3)cc2o1` showed a melting point of 214 to 217 °C. The value for `CCOC(=O)c1cnc2nc(N3CCN(C)CC3)ncc2c1OCC` was 105 to 108 °C. The value for `CNC(=O)C1CN(CCCC(c2ccc(F)cc2)c2ccc(F)cc2)CCN1CC(=O)Nc1c(C)cc(C)cc1C` (configuration not stated) was 90.2 °C; that for `Cc1oc2c(NC(=O)c3c(Cl)cccc3Cl)cccc2c1CN` was 200 to 203 °C; that for `COC(=O)c1ccc(Cl)cc1NC(=O)CSc1ccc(C)cc1` was 91 to 93 °C.

Consider `O=C(NCc1ccn(-c2cc3c(cc2[N+](=O)[O-])[nH]c(=O)c(=O)n3C2CCCCC2)c1)Nc1ccncc1`, for which the melting point is over 200 °C. Consider `CCC1(N2C(=O)c3ccccc3C2=O)C(=O)NC(=O)N(C2CCCCC2)C1=O` (configuration not stated), for which the melting point lay within 248 to 253 °C. The value for `CC1(C(=O)NCCc2ccc(CCC(=O)O)cc2)C=CN=N1` (configuration not stated) was 202 to 205 °C; that for `CC1(C)OCC2Cc3cc4c(cc3C(c3ccc([N+](=O)[O-])cc3)=NN21)OCO4` (configuration not stated) was 171 to 173 °C. `O=[N+]([O-])c1c(O)nc(N2CCSCC2)nc1O` gave a melting point of 220 to 223 °C. In the case of `CC(=O)CS(=O)(=O)c1cccc2ccccc12`, the melting point was determined as 65 °C. The value for `CCOC(=O)c1c(N)c2c(n1C)N=CCN2` was 119 to 121 °C; that for `CCOCCOC(=O)C(=O)Nc1nc(-c2cc(OC)ccc2OC)cs1` was 140 to 141 °C. The value for `CC(C)(C)OC(=O)N[C@H](CC(=O)OCc1ccccc1)C(=O)N[C@H](CO)Cc1ccccc1` was 94 to 95 °C; that for `CC(C)(C)OC(=O)N1CC(CCl)c2c1cc(N)c1ccccc21` (configuration not stated) was over 200 °C. The value for `C=CC(=O)OCCCCC[C@H]1CC[C@H](c2cccc(F)c2F)CC1` was 29.6 to 30.7 °C; that for `NC(=O)C1CCCc2c(C(=O)O)cccc21` (configuration not stated) was 247 to 249 °C; that for `CC(=O)NC[C@H]1CN(c2ccc(N3C[C@H]4CN(C(=O)OCc5ccccc5)C[C@H]4C3)c(F)c2)C(=O)O1` was 165 to 168 °C. Take `O=C(NCc1ccn(-c2cc3nc(C(=O)O)c(=O)[nH]c3cc2C(F)(F)F)c1)Nc1ccccc1`: the melting point is over 300 °C. The value for `CN(CCNCc1ccccc1)Cc1ccccc1` was 83 to 84 °C; that for `Cn1nnnc1CO/N=C(\C(=O)O)c1csc(N)n1` was 185 °C; that for `Nc1n[nH]c2cc(Br)ccc12` was 222 to 225 °C. The value for `O=C(O)CN1CN(c2ccccc2)C2(CCCCC2)C1` was 162 to 164 °C; that for `CCCN(CCC)c1c(CC)nn2c(-c3ccc(OC)cc3Cl)cccc12` was 73.6 to 76 °C; that for `CCCCc1ccc(CN(CCCCCCC(=O)O)S(C)(=O)=O)cc1` was 137 °C. The value for `CC(=O)c1ccc(OCCOc2ccc3ccccc3c2)c(F)c1` was 171 to 173 °C; that for `COc1ccc(C(=O)Nc2ccc3sc(C)nc3c2Cl)cc1` was 182 °C. Regarding `O=C(c1ccncc1)c1cc2c(c(C(=O)O)c1)OC(c1ccccc1)(c1ccccc1)O2`, the melting point was in the range of 256 to 257 °C. The value for `O=C(O)CCCCCCCCCCCNC(=O)OCc1ccccc1` was 84 to 85 °C; that for `NS(=O)(=O)c1ccccc1OCC1CO1` (configuration not stated) was 132 to 133 °C; that for `CC(=NOC(C)C)c1ccc2c(c1)ncn2-c1cccc(-c2cccnc2)c1` was 77 to 80 °C.

The compound `CCCN1CCc2c(cccc2NC(=O)c2ccc(OC)c(OC)c2)C1` gave a melting point of 146 to 147 °C. In turn, `CC(C)(C)c1cc(SCCCC(=O)O)cc(C(C)(C)C)c1O` displayed a melting point of 112 to 114 °C. The value for `CCC1(CC)c2ccccc2C(CC)(CC)N1OC(C)(C)C#N` was 63 to 64 °C; that for `CCCNC(=O)c1ccc(C)c(-c2nc(NCCN(C)C(=O)OC(C)(C)C)nc3c2ccc(=O)n3-c2c(F)cccc2F)c1` was 115 to 118 °C. The value for `C=CCN(c1ccccc1C=C(SC)S(C)=O)c1c(Cl)cccc1Cl` (configuration not stated) was 104 to 107 °C; that for `CC(=O)c1cc(F)ccc1Oc1nc2ccc([N+](=O)[O-])cc2cc1Cc1ccccc1` was 132 to 133 °C; that for `O=C(NCC12CCCN(CCC1)C2)c1c[nH]c2ccccc12` was 139 to 142 °C.

For the compound `CCc1c(Cc2ccccc2)oc2c(C(=O)NCCCN3CCN(c4ccccc4OC)CC3)cccc12`, the melting point is 110 to 112 °C. The value for `COC(=O)c1cc(Cl)cc(OC)c1O` was 105 °C. The value for `COc1cc(CC(C)=O)ccc1OCC(O)CN1CCN(c2ccccc2C)CC1` (configuration not stated) was 128 °C; that for `CCCCCCCCCCCCCCCCCC(=O)NCCS` was 63 to 65 °C. The value for `O=C(NC(=O)c1cc(Cl)cc(Cl)c1)NC1CN2CCC1CC2` (configuration not stated) was 253 to 254 °C; that for `COC(=O)N1C(=O)c2ccccc2C1=O` was 184 °C; that for `Cc1ccc(Cc2cc(C)c(C)c(=O)n2O)c(C)c1` was 141 °C.

In turn, `CCN(CC(C)C)c1c(C(O)C#Cc2ccc(C(=O)O)cc2)cccc1C(C)(C)C` (configuration not stated) came in with a melting point of 117 °C. The value for `CCN(CC)CCNc1ccc2c3c(nn2CCO)-c2c(O)ccc(O)c2C(=O)c13` was 231 to 234 °C. Take `CC(C)CCCOc1ccc2[nH]ncc2c1`: the melting point was in the range of 124 to 126 °C.

For the compound `CCOC(OCC)C(N)=C(c1ccncc1N)c1ccccc1Cl`, the melting point was 94 to 95 °C. The value for `CC1=NOC(c2c(S(C)(=O)=O)ccc(C(=O)c3cnn(C4CC4)c3O)c2Cl)C1` (configuration not stated) was over 220 °C; that for `COc1ccc2c(c1)OC(CNCCCOc1ccc3cccnc3c1)CO2` (configuration not stated) was 135 to 142 °C. The value for `CCOC(=O)c1c(N2CCN(C(=O)c3cccs3)CC2)c2cscc2[nH]c1=O` was 282 °C; that for `O=C(COc1ccccc1)c1ccc(Cl)cc1` was 80 to 83 °C; that for `O=C(NC(Cc1ccc(OCc2ccccc2)cc1)C(=O)O)c1cn2cccc(OCc3ccc(Cl)cc3)c2n1` (configuration not stated) was 210 °C. The value for `CCCNCC1Cc2cc(F)cc(-c3c(Cl)cccc3Cl)c2O1` (configuration not stated) was over 250 °C; that for `CS(=O)(=O)c1ccc(-c2ccccc2Oc2ccccc2)cc1` was 130 to 131 °C.

Consider `CCSC(N)=C(C#N)C(N)=S`, for which the melting point fell in the range of 200 to 201 °C. The value for `CCCc1nc(N)cc(OC)n1` was 97 to 99 °C; that for `O=C(CBr)Nc1ccccc1` was 131 to 135 °C. The value for `COc1ccc(C(=O)c2cc(Cl)ccc2NS(=O)(=O)c2ccc(C)cc2)c(O)c1OC` was 185 to 187 °C; that for `Clc1nc(Cl)c2ncn(C3CC3)c2n1` was 121 to 124 °C.
